Laboratory results taken from patent publication US6994983B2, “Kits for determination of thromboxane B2 metabolite and optimizing aspirin dosage” (Esoterix, Inc. Coagulation, priority 1999, dated 2006).
“And” between values parts separate entries of the source, which are not always exact repeats. Equal values may be shown once.

Legend:
[1] = in vivo; cited from earlier work
11-dehydro TXB2 [2] = assay: 11-dehydro TXB2 in random urine of aspirin users and non-users (acetylcholinesterase-linked immunoassay); assay type: in vivo, human; settings: 45 people taking at least 81 mg/day; non-aspirin users 2080
Procedure: Random urine specimens were collected from 65 individuals who had avoided aspirin for at least two weeks and from 45 individuals who were taking 81 or 325 mg/day by prescription. Each specimen was assayed for 11-dehydro-TXB2. Specimens were assayed at two dilutions using acetylcholinesterase-linked immunoassay. The results were tested for parallelism and averaged. Urine creatinine was assayed using the Jaffe picrate reaction. To normalize for urinary output, results were expressed in pg 11-dehydro TXB2/mg creatinine. Results of all populations were compared using the student t-test. Within-day variation is 30% and day-to-day variation 20%.
11-dehydrothromboxane B2 (11-de-H-TXB2), a stable metabolite of platelet activation was measured in random urine specimens from 65 people who were not taking aspirin and 45 who were taking at least 81 mg/day. The means for non-aspirin users was 2080 pg 11-de-H-TXB2/mg creatinine, and for aspirin users was 523, p.<0.0000.1. Receiver-operating characteristic analysis yields an optimum decision point of 1000 pg 11-de-H-TXB2 in random urine may be used to document aspirin's platelet-suppressive effects and to identify individuals who may not achieve antithrombotic benefits.

11-dehydro TXB2 [3] = assay: Crossover study: urine 11-dehydro TXB2 before and 24 hours after one 81 or 325 mg aspirin tablet in 24 healthy individuals; assay type: in vivo, human; settings: for mean reduction of 11-dehydro TXB2 / PURR: healthy non-aspirin users
Procedure: (§1) In a crossover study, 24 healthy individuals who had avoided aspirin for a minimum of 10 days collected random baseline urine specimens. They then took one 81 or 325 mg tablet at 8:00 a.m. and collected a second urine specimen 24 hours after the aspirin was taken. Following a two-week washout period dosages were reversed and another baseline and 24-hours post-aspirin specimen was collected.
as §1, with “study, twenty-four” for “study, 24”, “of ten” for “of 10”, “8:00 AM” for “8:00 a.m.”, “a 2-week” for “a two-week”

11-dehydro TXB2 [4] = assay: Platelet urinary response ratio (PURR), aspirin therapy vs non-users, reformulated buffer; assay type: in vivo, human
From the text: The PURRs generated in the 11-dehydro thromboxane B2 assay in the present example were higher than those generated in subsequent studies. The average reduction after the investigators initial assay was 60%. This change was a result of a reformulation of the reagent buffer. Reformation of the buffer was made by the supplier, Cayman Chemical Corporation. The initial buffer was thought to be a phosphate saline buffer. The reformatted buffer is an alpha diethanolamine buffer. […] The buffer change was made to convert any lactone form present in the same urine to the free acid form of the thromboxane. The current procedure requires a two-hour pre-incubation of the urine sample in the diethanolamine buffer in order to allow for the conversion of the forms before pipetting to the plate. The new decision point for the assay is 400 PURR units, down from the original 1000.
To normalize for urinary output, results are expressed as platelet urinary response ratio (PURR) based upon pg 11-dehydro TXB2/g creatinine. Results of all populations were compared using the student t-test.

[5] = system: 11-dehydro thromboxane B2; assay: Urine 11-dehydro thromboxane B2 (PURR) after one-week interventions with purple grape juice, vitamin E and aspirin; assay type: in vivo, human; settings: for Mean post-intervention PURR: one week each: purple grape juice controlled daily volumes, mean baseline 1105; for Mean post-intervention PURR / % Change of PURR vs mean baseline: vitamin E 400 international units per day, aspirin 650 mg per day; for % Change of PURR vs mean baseline: one week each: purple grape juice; for effect upon urinary excretion of 11-dehydro thromboxane B2: one-week interventions, in words
Procedure: 11-dehydro thromboxane B2, a stable metabolite of platelet-specific cyclooxygenase activity, in urine specimens from 29 individuals was measured. Participants were instructed to drink controlled daily volumes of purple grape juice, 400 international units per day of vitamin E, and 650 mg per day of aspirin. Each intervention was given in one-week intervals separated by a one-week washout period. The metabolite was measured in baseline, post-intervention, and post-washout urine specimens and the results were expressed as platelet urinary response ratios (PURR) based upon pg 11-dehydrothromboxane B2/mg creatinine.

[6] = patients with prior acute myocardial infarction or stroke; cited from earlier work
[7] = smokers after partial ileal bypass surgery reporting even infrequent aspirin use; 45.2% with no aspirin use; cited from earlier work
[8] = cited from earlier work
platelet aggregation [9] = settings: cited from earlier work
platelet aggregation [10] = settings: intermittent claudication, 100 mg aspirin/day, at any given time; cited from earlier work
platelet reactivity = settings: cited from earlier work
serum TXB2 = settings: 3 mg of aspirin per day, healthy volunteers; cited from earlier work
[11] = single dose of 325 mg; cited from earlier work
[12] = system: platelet suppression response; settings: patients on aspirin therapy; cited from earlier work
[13] = in vivo; cited from earlier work; remark: listed apart in the source

For `CCCCCC(O)C=CC1OC(=O)CC(O)C1CC=CCCCC(=O)O` (stereo not shown) [11-dehydro TXB2, 11-dehydro thromboxane B2], the plasma half-life [1] is listed as 45 min.
With `CC(=O)Oc1ccccc1C(=O)O` [Aspirin, acetyl salicylic acid] the “mean 11-de-H-TXB2 in random urine of aspirin users” value (11-dehydro TXB2 [2]) was 523 pg 11-de-H-TXB2/mg creatinine, the “% Inhibition (81)” value (11-dehydro TXB2 [3]; 81 mg aspirin, urine 11-dehydro TXB2 24 hours post-dose vs baseline, individual subjects 3, 8, 12, 14, 17, 18, 24 with weak response) was 60% and 78% and 46% and 48% and 70% and 17% and 10% and the “mean reduction of 11-dehydro TXB2 / PURR” value (11-dehydro TXB2 [3]; 81 mg/day) was 68%. The “% Inhibition (325)” value (11-dehydro TXB2 [3]; 325 mg aspirin, urine 11-dehydro TXB2 24 hours post-dose vs baseline, individual subjects 3, 8, 12, 14, 17, 18, 24 with weak response) was 44% and 40% and 82% and 83% (2×) and 46% and 38%, the “mean reduction of 11-dehydro TXB2 / PURR” value (11-dehydro TXB2 [3]; 325 mg/day) was 76% and the “individuals with a less than 50% response to either 81 mg or 325 mg of aspirin” value (11-dehydro TXB2 [3]; crossover study, seven individuals) was 30%. The “Mean PURR, aspirin therapy” value (11-dehydro TXB2 [4]; 81 to 325 mg/day, N 98, aspirin non-users 1147) was 297 PURR units, the “individuals identified as potential non-responders” value (11-dehydro TXB2 [4]; aspirin users, decision points 400 / 500 pg 11-dehydro-TXB2/mg creatinine) was 13% and the “Mean post-intervention PURR” value [5] was 379.7 PURR. For the same compound, the “% Change of PURR vs mean baseline” value [5] was −65.6%, the “effect upon urinary excretion of 11-dehydro thromboxane B2” value [5] was “large and statistically significant effect” and the “new thrombotic events prevented” value [6] was “up to 40 per thousand treated”. For the same compound, the overall mortality rate [7] was 10.4%, the “reduction of the morning peak of infarction” value ([8]; between 4 and 10 a.m., 325 mg every other day) was 59.3% and the “mean reduction in the incidence of first myocardial infarction” value ([8]; healthy men, 325 mg every other day, vs placebo) was 44.8%. The “thrombotic events prevented, average” value ([8]; healthy men) was “four”, the “patients with only partial inhibition of platelet aggregation” value (platelet aggregation [9]; atrial fibrillation, 325 mg enteric coated aspirin per day) was “seven of 17” and the “patients with restoration of platelet aggregation (aspirin resistance)” value (platelet aggregation [9]; previous ischemic stroke, escalation to 1300 mg/day) was 8.2%. The “males with complete inhibition of aggregation” value (platelet aggregation [10]) was 40%, the “subjects with immediate suppression of platelet reactivity” value (platelet reactivity; 500 mg three times per day, upon initial administration) was 90% and the “secondary aspirin non-responders with myocardial infarct, repeat stroke, or vascular death” value (platelet reactivity; 24-month period following discharge) was 40%. The “remaining subjects with major endpoints” value (platelet reactivity; 114 remaining subjects, 24-month period) was 4.4%, the “reduction of serum TXB2 levels compared to placebo” value (serum TXB2) was 39% and the “duration of effect on platelet laboratory assays” value [11] was “six to ten”. For the same compound, the “individuals with aspirin resistance / less than adequate platelet suppression response” value [12] was “up to 20%”, the “relative risk for hemorrhagic stroke” value [13] was 4 × and the “relative risk of ischemic stroke” value [13] was 1.6 ×.
In the case of Vitamin E, the “Mean post-intervention PURR” value [5] was 1293.1 PURR, the “% Change of PURR vs mean baseline” value [5] was “+14.3%” and the “effect upon urinary excretion of 11-dehydro thromboxane B2” value [5] was “no measurable effect”.
